Measurements from patent publication US20120201762A1, “ORAL CARE COMPOSITION” (COLGATE-PALMOLIVE COMPANY, priority 2009, published 2012).

Key:
VSC in whole saliva [1] = assay: Reduction of VSC in whole saliva incubated overnight with cysteine and an amino acid (GC); settings: for VSC Reduction (%): relative to saliva and cysteine alone, 10% of 0.1% amino acid solution added to 50% whole saliva, overnight incubation; for Effect on VSC in saliva (in words): whole saliva with cysteine
Method: The effect of serine and other amino acids on VSC was tested. Whole saliva was incubated overnight with cysteine and an additional amino acid selected from serine, proline, tyrosine, glycine, aspargine, glutamic acid, and histidine. In this experiment, 10% of 0.1% amino acid solution was added to 50% whole saliva. GC measurements were made for VSC.

indole in whole saliva [2] = assay: Indole production in whole saliva incubated with tryptophan, zinc lactate with and without serine (GC); settings: for Indole (ppm): serine 0.42% where present, whole saliva with tryptophan 0.14%, overnight at 37° C.
Method: The effect of zinc lactate and serine on indole was tested. Whole saliva with tryptophan (0.14%), various concentrations of zinc lactate, and when necessary, serine (0.42%), was incubated overnight at 37° C. After 24 h, the samples were allowed to cool to 25° C. The samples were extracted with hexanes (2 mL) and the organic layer (1 mL) was used for GC quantification.

indole in whole saliva [3] = assay: Reduction of indole in whole saliva incubated with tryptophan and serine (hexanes extraction, GC); settings: whole saliva with tryptophan 0.14%; for Area Under the Curve (AUC), indole by GC: overnight at 37° C., control without serine 642403
Method: The effect of serine on indole was tested. Whole saliva with tryptophan (0.14%) and various concentrations of serine was incubated overnight at 37° C. After 24 h, the samples were allowed to cool to 25° C. The samples were extracted with hexanes and the organic layer was used for GC quantification.

VSC in whole saliva [4] = assay: Headspace VSC in whole saliva incubated with zinc lactate with and without serine (GC); settings: zinc lactate 0.16%
Method: The effect of zinc lactate and serine on VSC was tested. Whole saliva with tryptophan (0.14%), zinc lactate (0.16%), and when necessary, serine (0.42%), was incubated overnight at 37° C. After 24 h, the samples were allowed to cool to 25° C. The samples were then quantified for headspace VSC using a GC.

SMILES: NC(=O)C[C@H](N)C(=O)O [Asparagine]
- VSC Reduction (%) (VSC in whole saliva [1]): −2.14%

SMILES: N[C@@H](CO)C(=O)O [Serine, (2S)-2-amino-3-hydroxypropanoic acid]
- Effect of serine added to zinc lactate on indole production (in words) (indole in whole saliva [2]; various concentrations of zinc lactate, serine 0.42%): enhances the effect of zinc lactate and reduces indole production
- Area Under the Curve (AUC), indole by GC (indole in whole saliva [3]; serine 0.21%): 584720
- Area Under the Curve (AUC), indole by GC (indole in whole saliva [3]; serine 0.42%): 532053
- Area Under the Curve (AUC), indole by GC (indole in whole saliva [3]; serine 0.84%): 542136
- Effect on amount of indole in saliva (in words) (indole in whole saliva [3]): able to reduce amount of indole in saliva
- Effect of serine added to zinc lactate on VSC production (in words) (VSC in whole saliva [4]; serine 0.42%): enhances the effect of zinc lactate and reduces VSC production
- VSC Reduction (%) (VSC in whole saliva [1]): 36.56%
- Effect on VSC in saliva (in words) (VSC in whole saliva [1]): greatest percent reduction of VSC
- Effect on VSC in saliva (in words) (VSC in whole saliva [1]; listed as serine): able to reduce VSC in saliva

SMILES: N[C@@H](Cc1ccc(O)cc1)C(=O)O [Tyrosine, tyrosine]
- VSC Reduction (%) (VSC in whole saliva [1]): 0.06%

SMILES: N[C@@H](CCC(=O)O)C(=O)O [Glutamic acid, glutamic acid]
- VSC Reduction (%) (VSC in whole saliva [1]): −5.2%

SMILES: CC(O)C(=O)[O-].CC(O)C(=O)[O-].[Zn+2] (stereo not shown) [Zinc Lactate, zinc lactate]
- Indole (ppm) (indole in whole saliva [2]; zinc lactate 0.09%): 9.99 ppm
- Indole (ppm) (indole in whole saliva [2]; zinc lactate 0.16%): 5.09 ppm
- Indole (ppm) (indole in whole saliva [2]; zinc lactate 0.23%): 4.71 ppm
- VSC (ppb) (VSC in whole saliva [4]; headspace VSC, whole saliva with tryptophan 0.14%, serine 0.42% where present, overnight at 37° C.): 109.25 ppb

SMILES: N[C@@H](Cc1c[nH]cn1)C(=O)O [Histidine, histidine]
- VSC Reduction (%) (VSC in whole saliva [1]): 1.36%

SMILES: O=C(O)[C@@H]1CCCN1 [Proline, proline]
- VSC Reduction (%) (VSC in whole saliva [1]): 6.99%

SMILES: NCC(=O)O [Glycine, glycine]
- VSC Reduction (%) (VSC in whole saliva [1]): 14%
